Reference: a flash point compilation (Sun et al. 2020)

flash point [°C]	SMILES
138.00	S=C([S-])NCCNC(=S)[S-].S=C([S-])NCCNC(=S)[S-].[Mn+2].[Zn+2]
138.00	S=C([S-])NCCNC(=S)[S-].[Mn+2]
163.00	NCCNCCNCCNCCN
272.00	O=C1OC(=O)c2cccc3cccc1c23
29.00	C=C1C(CCl)(CCl)C2(Cl)C(Cl)C(Cl)C1(Cl)C2(Cl)Cl (stereo not given)
101.00	C=C1CCC=C(C)CC[C@@H]2[C@@H]1CC2(C)C
297.00	CC(C)(C)c1cc(CCC(=O)OCC(COC(=O)CCc2cc(C(C)(C)C)c(O)c(C(C)(C)C)c2)(COC(=O)CCc2cc(C(C)(C)C)c(O)c(C(C)(C)C)c2)COC(=O)CCc2cc(C(C)(C)C)c(O)c(C(C)(C)C)c2)cc(C(C)(C)C)c1O
110.00	CC(C)=CCC/C(C)=C\CC/C(C)=C/CC/C=C(\C)CC/C=C(\C)CCC=C(C)C
121.00	CC(C)C(=O)OCC(C)(C)C(OC(=O)C(C)C)C(C)C (stereo not given)
163.00	CC(C)Nc1nc(Cl)nc(NC2CC2)n1
82.00	CC1(C)C2CCC1(C)C(OC(=O)CSC#N)C2 (stereo not given)
216.00	Cc1cc(O)c(C(C)(C)C)cc1Sc1cc(C(C)(C)C)c(O)cc1C
52.00	C=Cc1ccc(C)cc1.C=Cc1cccc(C)c1.C=Cc1ccccc1C
43.00	CC1=C[C@H]2C(=O)O[C@H]3C[C@@H](C/C=C(\C)C[C@@H](C)/C=C/C=C4\CO[C@H]([C@@H]1O)[C@@]42O)O[C@@]1(CC[C@H](C)[C@@H](C)O1)C3
100.00	C=C(C)C1CCC2=CC(=O)CC(C)C2(C)C1 (stereo not given)
38.00	CCC1CCC(CCC(=O)[O-])C1.CCC1CCC(CCC(=O)[O-])CC1.[Cu+2] (stereo not given)
307.00	CCCCCC1OC1CC1OC1CCCCCCCC(=O)OCC(COC(=O)CCCCCCCC1OC1CC1OC1CCCCC)OC(=O)CCCCCCCC1OC1CC1OC1CCCCC (stereo not given)
197.00	CCCCCCCCCc1ccc(OCCOCCOCCOCCOCCOCCOCCOCCOCCO)cc1
199.00	CCCNCC(O)COc1ccccc1C(=O)CCc1ccccc1 (stereo not given)
113.00	COc1cc(CNC(=O)CCCC/C=C/C(C)C)ccc1O
73.00	C[Si]1(C)O[Si](C)(C)O[Si](C)(C)O[Si](C)(C)O[Si](C)(C)O1
85.00	Cc1nn(C)c(Oc2ccccc2)c1/C=N/OCc1ccc(C(=O)OC(C)(C)C)cc1
199.00	O=C(OC[C@H]1O[C@@H](OC(=O)c2cc(O)c(O)c(OC(=O)c3cc(O)c(O)c(O)c3)c2)[C@H](OC(=O)c2cc(O)c(O)c(OC(=O)c3cc(O)c(O)c(O)c3)c2)[C@@H](OC(=O)c2cc(O)c(O)c(OC(=O)c3cc(O)c(O)c(O)c3)c2)[C@@H]1OC(=O)c1cc(O)c(O)c(OC(=O)c2cc(O)c(O)c(O)c2)c1)c1cc(O)c(O)c(OC(=O)c2cc(O)c(O)c(O)c2)c1
229.00	O=c1[nH]cnc2c1ncn2[C@H]1C[C@H](O)[C@@H](COP(=O)(O)OP(=O)(O)O)O1

flash point [°C]	SMILES
187.00	OC[C@H]1O[C@@H](OC/C=C/c2ccccc2)[C@H](O)[C@@H](O)[C@@H]1O
41.00	CCCCC(Cl)Cl [1,1-dichloropentane]
170.00	N=C(N)N(c1ccccc1)c1ccccc1 [1,1-diphenylguanidine]
63.00	Cc1cc(C)c(C)c(C)c1 [1,2,3,5-tetramethylbenzene]
54.00	Cc1cc(C)c(C)cc1C [1,2,4,5-tetramethylbenzene]
44.00	Cc1ccc(C)c(C)c1 [1,2,4-trimethylbenzene]
62.00	C=Cc1ccccc1C=C [1,2-bis(ethenyl)benzene]
141.00	Clc1ccc(-c2cccc(Cl)c2Cl)c(Cl)c1 [1,2-dichloro-3-(2,4-dichlorophenyl)benzene]
65.00	FC(F)(F)c1ccc(Cl)c(Cl)c1 [1,2-dichloro-4-(trifluoromethyl)benzene]
57.00	CCc1ccccc1CC [1,2-diethylbenzene]
99.00	C=CCc1ccc(OC)c(OC)c1 [1,2-dimethoxy-4-prop-2-enylbenzene]
107.00	Clc1cc(Cl)cc(Cl)c1 [1,3,5-trichlorobenzene]
27.00	CC(Cl)=CCCl [1,3-dichlorobut-2-ene]
150.00	CCN(C(=O)N(CC)c1ccccc1)c1ccccc1 [1,3-diethyl-1,3-diphenylurea]
2.00	C1COCOC1 [1,3-dioxane]
227.00	O=C(O)c1ccc2c(c1)C(=O)OC2=O [1,3-dioxo-2-benzofuran-5-carboxylic acid]
143.00	O=C1OCCO1 [1,3-dioxolan-2-one]
53.00	ClCC=CCCl [1,4-dichlorobut-2-ene]
140.00	O=C=NCCCCCCN=C=O [1,6-diisocyanatohexane]
66.00	CC12CCC(CC1=O)C2(C)C (stereo not given) [1,7,7-trimethylbicyclo[2.2.1]heptan-2-one]
126.00	CC(O)CNCC(C)O (stereo not given) [1-(2-hydroxypropylamino)propan-2-ol]
86.00	CCC(OCCCOC)OC(C)=O (stereo not given) [1-(3-methoxypropoxy)propyl acetate]
138.00	COc1ccc(C(C)=O)cc1 [1-(4-methoxyphenyl)ethanone]
192.00	C=CCOC(Cn1ccnc1)c1ccc(Cl)cc1Cl (stereo not given) [1-[2-(2,4-dichlorophenyl)-2-prop-2-enoxyethyl]imidazole]

SMILES	flash point [°C]
Cl.O=C(O)CCP(CCC(=O)O)CCC(=O)O	202.00
O=P1(N(CCCl)CCCl)NCCCO1 (stereo not given)	113.00
CC(C)(c1ccc(OC[C@@H]2CO2)cc1)c1ccc(OC[C@@H]2CO2)cc1	79.00
CC(C)[C@H](C(=O)O[C@H](C#N)c1cccc(Oc2ccccc2)c1)c1ccc(Cl)cc1	256.00
Cc1c(COC(=O)C2C(C=C(Cl)C(F)(F)F)C2(C)C)cccc1-c1ccccc1 (stereo not given)	165.00
CC1=C(C(=O)Nc2ccccc2)S(=O)(=O)CCO1	219.00
CCCCC(CC)Cc1c(C(=O)OOOC(=O)c2cc(O)c(O)c(O)c2)cc(O)c(O)c1O (stereo not given)	232.00
CCCCOC(=O)COC(=O)c1ccccc1C(=O)OCCCC	199.00
CCCOP(=S)(OCCC)OP(=S)(OCCC)OCCC	149.00
CCOP(=S)(OCC)Oc1cc(C)nc(N(CC)CC)n1	113.00
CCOP(=S)(OCC)Oc1ccc([N+](=O)[O-])cc1	120.00
CCOP(=S)(OCC)Oc1nc(Cl)c(Cl)cc1Cl	28.00
CCOP(=S)(OCC)SCSC(C)(C)C	88.00
CCSC(C)CC1CC(=O)C(/C(CC)=N/OC/C=C/Cl)=C(O)C1 (stereo not given)	72.00
COc1ccc2c3c1OC1C(O)C=CC4C(C2)N(C)CCC341 (stereo not given)	75.00
COC(C)(C)CCCC(C)C/C=C/C(C)=C/C(=O)OC(C)C (stereo not given)	187.00
COP(=O)(OC)OC1=C(Cl)C2C=CCC12 (stereo not given)	165.00
COP(=S)(OC)Oc1nc(Cl)c(Cl)cc1Cl	182.00
c1ccc(-c2ccccc2)cc1.c1ccc(Oc2ccccc2)cc1 [1,1'-biphenyl;phenoxybenzene]	124.00
ClC(Cl)=C(Cl)C(Cl)=C(Cl)Cl [1,1,2,3,4,4-hexachlorobuta-1,3-diene]	90.00
C1CCC2CCCCC2C1 (stereo not given) [1,2,3,4,4a,5,6,7,8,8a-decahydronaphthalene]	57.00

SMILES	flash point [°C]
Clc1cccc(Cl)c1Cl [1,2,3-trichlorobenzene]	112.00
Clc1ccc(Cl)c(Cl)c1 [1,2,4-trichlorobenzene]	110.00
ClCC(Br)CBr (stereo not given) [1,2-dibromo-3-chloropropane]	77.00
ClC=CCl [1,2-dichloroethene]	4.00
c1cc2c3c(cccc3c1)CC2 [1,2-dihydroacenaphthylene]	125.00
O=c1ccc(=O)[nH][nH]1 [1,2-dihydropyridazine-3,6-dione]	300.00
Cc1ccc([N+](=O)[O-])cc1C [1,2-dimethyl-4-nitrobenzene]	107.00
NC(=Nc1ccccc1)Nc1ccccc1 [1,2-diphenylguanidine]	198.00
Cc1ccc(C)cc1.Cc1cccc(C)c1.Cc1ccccc1C [1,2-xylene;1,3-xylene;1,4-xylene]	25.00
Clc1cc(Cl)cc(-c2cc(Cl)cc(Cl)c2)c1 [1,3-dichloro-5-(3,5-dichlorophenyl)benzene]	141.00
O=[N+]([O-])c1cc(Cl)cc(Cl)c1 [1,3-dichloro-5-nitrobenzene]	140.00
ClCCCCl [1,3-dichloropropane]	21.00
Cc1cccc(C)c1[N+](=O)[O-] [1,3-dimethyl-2-nitrobenzene]	88.00
c1ccc(-c2cccc(-c3ccccc3)c2)cc1 [1,3-diphenylbenzene]	191.00
COc1cc(Cl)c(OC)cc1Cl [1,4-dichloro-2,5-dimethoxybenzene]	161.00
O=[N+]([O-])c1cc(Cl)ccc1Cl [1,4-dichloro-2-nitrobenzene]	135.00
ClCCCCCl [1,4-dichlorobutane]	40.00
c1ccc(-c2ccc(-c3ccccc3)cc2)cc1 [1,4-diphenylbenzene]	207.00
Cc1ccc(C)cc1 [1,4-xylene]	27.00
CCCCOCCOCC(C)O (stereo not given) [1-(2-butoxyethoxy)propan-2-ol]	121.00
Cc1ccc(CBr)cc1 [1-(bromomethyl)-4-methylbenzene]	98.00
